Laboratory results published in patent US20260308158A1, “TARGETING RNAS ASSOCIATED WITH TAUOPATHIES WITH SMALL MOLECULES” (University of Florida Research Foundation, Incorporated, priority 2023, published 2026).

Tests used:
WT SRE RNA = assay: In vitro Chem-CLIP, WT SRE RNA; type: binding
Procedure: (§1) In Vitro Chemical Cross-linking and Isolation by Pull Down (Chem-CLIP) and Competitive Chem-CLIP (C-Chem-CLIP). Growth medium [Dulbecco's modified eagle medium (DMEM; corning, 10-013-CM) with 1× Glutagro (corning)] and 10% (v/v) fetal bovine serum (FBS; Sigma, 12003C) was inactivated by heating at 95° C. for 15 min and slowly cooling to room temperature. Approximately 10,000 counts of 32P 5′-end labeled tau WT, DDPAC, WT+I17T, or DDPAC+I17T RNA were folded in 10 μL growth medium by heating at 65° C. for 5 min and slowly cooling to room temperature. Chem-CLIP probe 3 or negative control probe 4 was then added into the folded RNA in a total volume of 20 μL, and the mixtures were incubated at 37° C. for 1 h. For C-Chem-CLIP, dilutions of competing compound 2 were incubated with RNA for 30 min before adding 3. […]
(§2) The Chem-CLIP probe 3 or control probe 4 was then clicked to disulfide biotin azide (2 μL of 10 mM solution prepared in DMSO solution per sample; Click Chemistry Tools, catalog no. 1168-10). […] The radioactive signal from bound RNAs (on the beads) and unbound RNAs (in the wash buffer) was measured by using a Beckman Coulter LS6500 Liquid Scintillation Counter as Rbound and Runbound. Enrichment was calculated as the percentage of radiolabeled RNA captured by beads calculated as Rbound/(Rbound+Runbound).

DDPAC SRE RNA = assay: In vitro Chem-CLIP, DDPAC SRE RNA; type: binding
Procedure: as §1, §2

WT I17T mutant RNA = assay: In vitro Chem-CLIP, WT I17T RNA; type: binding; conditions: 50 μM
Procedure: as §1, §2

DDPAC I17T mutant RNA = assay: In vitro Chem-CLIP, DDPAC I17T RNA; type: binding; conditions: 50 μM
Procedure: as §1, §2

[1] = test system: WT MAPT mini-gene pre-mRNA; assay: Chem-CLIP / C-Chem-CLIP in HeLa cells transfected with WT mini-gene; type: cell-based; conditions: 3 at 1.5 μM, HeLa WT mini-gene
Procedure: (§3) Measuring Cellular Occupancy by Chem-CLIP and C-Chem-CLIP. LAN5 cells were grown to ~80% confluency in 100 mm diameter dishes. HeLa cells were transfected as described in the Luciferase Reporter Assay to Study Exon 10 Alternative Splicing except they were re-plated in 100 mm diameter dishes and grown to ~80% confluency (~1 day). The cells were then treated with 1.5 μM of 3 or 4 for 12 h. For C-Chem-CLIP, dilutions of competing compounds 1 or 2 were pre-incubated with cells for 12 h prior to adding 3. After addition of 3, the cells were incubated for an additional 12 h. After the treatment period, whether for Chem-CLIP or C-Chem-CLIP studies, the cells were washed with 10 mL of 1×DPBS. Ice-cold 1×DPBS (10 mL) was then added to the plate followed by irradiation with 365 nm light in a UV Stratalinker 2400 (Stratagene). Cells were scraped with a cell scraper, transferred to a 15 mL conical vial, and collected by centrifugation. Total RNA was extracted using TRIzol LS Reagent (Invitrogen) per the manufacturer's protocol. […]
(§4) RT-qPCR was performed on RNA samples before and after pull-down as described in Real-Time Quantitative PCR to enable calculation of fold enrichment in the pulled down samples. Relative fold enrichment of tau pre-mRNA was measured using Equation 3: […]

[2] = test system: DDPAC MAPT mini-gene pre-mRNA; assay: Chem-CLIP / C-Chem-CLIP in HeLa cells transfected with DDPAC mini-gene; type: cell-based; conditions: 3 at 1.5 μM, HeLa DDPAC mini-gene
Procedure: as §3, §4

[3] = test system: WT I17T MAPT mini-gene pre-mRNA; assay: Chem-CLIP in HeLa cells transfected with WT I17T mini-gene; type: cell-based; conditions: 1.5 μM
Procedure: as §3, §4

[4] = test system: DDPAC I17T MAPT mini-gene pre-mRNA; assay: Chem-CLIP in HeLa cells transfected with DDPAC I17T mini-gene; type: cell-based; conditions: 1.5 μM
Procedure: as §3, §4

[5] = test system: endogenous MAPT pre-mRNA in LAN5 cells; assay: Chem-CLIP / C-Chem-CLIP in LAN5 cells; type: cell-based; conditions: 3 at 1.5 μM
Procedure: as §3, §4

[6] = test system: MAPT pre-mRNA in LAN5 cells; assay: Chem-CLIP-Map-Seq in LAN5 cells; type: cell-based; conditions: 3 at 1.5 μM
Procedure: Chem-CLIP-Map-Seq. Chem-CLIP-Map-Seq was performed as previously described.^32 Briefly, LAN5 cells were grown to ~80% confluency in 100 mm diameter dishes and treated with 1.5 μM of 3 for 12 h. Total RNA was extracted and pulled down as described in Measuring Cellular Occupancy by Chem-CLIP and C-Chem-CLIP. RT was carried out using 1 μg of RNA pulled down by 3, […] of a MAPT gene-specific primer (5′-[…] (SEQ ID NO: 7)), and SuperScript III (Invitrogen, 18080400) in a total volume of 10 μL per the manufacturer's protocol.
After digestion with RNase A and RNase H (part of the Superscript III protocol), the cDNA from the RT reaction was cleaned up using RNA Clean XP beads (Beckman Coulter) according to the manufacturer's protocol. The purified cDNA was ligated to a 3′ ssDNA adaptor (5′-Phosphate-[…]-[…]-3C spacer (SEQ ID NO: 8)) by incubating 2 μL 10× T4 RNA Ligase Buffer, 1 μL of 1 mM ATP, 10 μL 50% (w/v) PEG 8000, 5 μL cDNA, 1 μL of 20 μM ssDNA adaptor, and 1 μL of T4 RNA Ligase [New England BioLabs, Inc. (NEB)]. The ligated cDNA was purified again with RNAClean XP beads as described above.
PCR amplification was performed with the purified ligated cDNA by using Phusion polymerase (NEB) with cycling conditions of 98° C. for 30 s, 65° C. for 20 s, and 72° C. for 60 s and forward (5′-[…] (SEQ ID NO: 9)) and reverse (5′-[…] (SEQ ID NO: 10)) primers for 25 cycles. […]

[7] = in vitro Chem-CLIP, read-out: IC50 for engaging and pull-down of RNA

SMILES: C#CCCC1(CCC(=O)NCCN(CCCc2cnc(N)cc2OC)CCCn2cnc3c4ccccc4n(C)c3c2=O)N=N1 [Compound 3]
- maximum percent pull-down (WT SRE RNA; 10 and 50 μM): ~ 40%
- IC50 (WT SRE RNA; [7]): ~1000 nM
- maximum percent pull-down (DDPAC SRE RNA; 10 and 50 μM): ~ 40%
- IC50 (DDPAC SRE RNA; [7]): ~1000 nM
- percent pull-down (engagement) (WT I17T mutant RNA): 15±0.9%
- percent pull-down (engagement) (DDPAC I17T mutant RNA): 9±0.7%
- enrichment of MAPT reporter [1]: 3.9±0.1 fold
- enrichment of MAPT reporter [2]: 3.8±0.1 fold
- enrichment of mutant reporter [3]: nor was enrichment observed
- enrichment of mutant reporter [4]: nor was enrichment observed
- enrichment of MAPT pre-mRNA [5]: 3.6±0.2 fold
- cross-linking site in MAPT RNA [6]: cross-linking occurred to the G in the 5′ CG closing base pair of the A-bulge
